Measured values reported in US7300503B2, “Dye mixture and ink containing the same, inkjet recording method and image forming method” (Fujifilm Corporation, priority 2004, dated 2007).

assay: Color toner: light fastness of image; type: physicochemical; conditions: xenon light 85,000 lx, 5 days, dye remaining ratio
Experimental: A mixture of 3 parts by weight of each of the phthalocyanine compounds (Compounds 101, 102, 103 and 107) according to the invention and 100 parts by weight of a resin for toner (styrene-acrylate copolymer, trade name: Hymer TB-1000F, produced by Sanyo Chemical Industries, Ltd.) was pulverized in a ball mill and melt-blended by heating at 150° C. After cooling, the resulting solid was coarsely pulverized by a hammer mill and then finely pulverized by an air jet-type pulverizer. The particles were classified to select those having a particle size of 1 to 20 micrometer to prepare a toner. To 10 parts by weight of the toner, 900 parts by weight of carrier iron powder (trade name: FEV250/400, produced by Powdertech Co., Ltd.) was uniformly blended to prepare a developer. Each developer was prepared in the same manner as above except for using 3 parts by weight of dye or 6 parts by weight of pigment as a comparative coloring agent as shown in Table 7 below. Using the developer, duplicate was conducted by a dry type plain paper electrophotographic copying machine (trade name: NP-5000 produced by Canon Inc.).
For the evaluation, by the developer using the color toner containing the compound according to the invention, a reflection image and a transmission image were prepared on paper and OHP sheet according to the above-described image forming method, respectively. The evaluation was conducted in the following manner. A toner adhesion amount was in a range of 0.7±0.05 mg/cm^2 for the evaluation.
With the image formed, color tone and light fastness were evaluated. Regarding the color tone, the evaluation was visually conducted by a three-stage rating of best, good and poor. In Table 7, symbols ∘, Δ and × mean best color tone, good color tone and poor color tone, respectively. The light fastness was evaluated by measuring image density (Ci) just after the recording, irradiating the image with xenon light (85,000 1×) using Weatherometer (Atlas C. 165) for 5 days and then measuring again image density (Cf), and calculated a dye remaining ratio ([…]). The image density was measured by a reflection densitometer (X-Rite 310TR). In Table 7, symbols ∘, Δ and × mean the dye remaining ratio of 90% or more, the dye remaining ratio of less than 90% to 80% and the dye remaining ratio of less than 80%, respectively.

Compound | Light Fastness
CNc1ccc(O)c2c1C(=O)c1c(O)ccc(NC)c1C2=O [Comparative Dye 3] | Δ (the dye remaining ratio of less than 90% to 80%)
Cc1ccc(Nc2ccc(Nc3ccc(C)cc3)c3c2C(=O)c2c(Nc4ccc(C)cc4)ccc(Nc4ccc(C)cc4)c2C3=O)cc1 [Comparative Dye 4] | Δ (the dye remaining ratio of less than 90% to 80%)
C.I. Solvent Blue 38 | ∘ (the dye remaining ratio of 90% or more)
C.I. Solvent Blue 70 | ∘ (the dye remaining ratio of 90% or more)
